Experimental data from patent publication US20250368649A1, “TETRAHYDROPYRIDOPYRIMIDINE PAN-KRAS INHIBITORS” (Mirati Therapeutics, Inc., priority 2022, published 2025).

What was measured:
[1] = system: ASPC1 cells; experiment: Inhibition of KRas-mediated phosphorylation of ERK (Cisbio HTRF pERK), ASPC1 cells; format: cell-based; details: Homo sapiens, AsPC-1 cells; for IC50: ASPC1, 3 h, 3 hr compound incubation; for inhibition at 0.1 µM: ASPC1, single point at 100 nM, 3 hrs compound incubation
[2] = system: H727 cells; experiment: Inhibition of KRas-mediated phosphorylation of ERK (Cisbio HTRF pERK), H727 cells; format: cell-based; details: Homo sapiens; for IC50: NCI-H727, 3 h, 3 hr compound incubation; for inhibition at 0.1 µM: NCI-H727, single point at 100 nM, 3 hrs compound incubation
[3] = system: A549 cells; experiment: Inhibition of KRas-mediated phosphorylation of ERK (Cisbio HTRF pERK), A549 cells; format: cell-based; details: Homo sapiens; for inhibition at 0.1 µM: single point at 100 nM, 3 hrs compound incubation; for IC50: A549, 3 h, 3 hr compound incubation
[4] = system: H460 cells; experiment: Inhibition of KRas-mediated phosphorylation of ERK (Cisbio HTRF pERK), H460 cells; format: cell-based; details: Homo sapiens; for inhibition at 0.1 µM: NCI-H460, single point at 100 nM, 3 hrs compound incubation; for IC50: NCI-H460, 3 h, 3 hr compound incubation
[5] = system: HCT116 cells; experiment: Inhibition of KRas-mediated phosphorylation of ERK (Cisbio HTRF pERK), HCT116 cells; format: cell-based; details: Homo sapiens; for inhibition at 0.1 µM: HCT-116, single point at 100 nM, 3 hrs compound incubation; for IC50: HCT-116, 3 h, 3 hr compound incubation
[6] = system: H358 cells; experiment: Inhibition of KRas-mediated phosphorylation of ERK (Cisbio HTRF pERK), H358 cells; format: cell-based; details: Homo sapiens; for inhibition at 0.1 µM: NCI-H358, single point at 100 nM, 3 hrs compound incubation; for IC50: NCI-H358, 3 h, 3 hr compound incubation
[7] = biological target: KRas G12D (Homo sapiens, UniProt P01116, G12D); experiment: biochemical; details: Binding to KRas (IC50 nM) G12D, TR-FRET displacement, KRas G12D
Chain of KRas G12D (P01116 1-169 isoform P01116-2 G12D): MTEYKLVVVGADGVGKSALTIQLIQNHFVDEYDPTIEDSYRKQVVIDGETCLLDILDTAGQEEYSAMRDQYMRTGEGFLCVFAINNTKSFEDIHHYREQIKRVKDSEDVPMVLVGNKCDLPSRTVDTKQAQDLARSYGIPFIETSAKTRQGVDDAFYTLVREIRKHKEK

[8] = biological target: KRas G12R (Homo sapiens, UniProt P01116, G12R); experiment: biochemical; details: Binding to KRas (IC50 nM) G12R, TR-FRET displacement, KRas G12R
Chain of KRas G12R (P01116 1-169 isoform P01116-2 G12R): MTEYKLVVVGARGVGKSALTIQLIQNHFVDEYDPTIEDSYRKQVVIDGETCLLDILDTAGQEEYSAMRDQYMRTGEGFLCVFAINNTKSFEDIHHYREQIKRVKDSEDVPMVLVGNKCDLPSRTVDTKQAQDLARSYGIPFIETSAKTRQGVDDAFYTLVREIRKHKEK

[9] = biological target: KRas G12V (Homo sapiens, UniProt P01116, G12V); experiment: biochemical; details: Binding to KRas (IC50 nM) G12V, TR-FRET displacement, KRas G12V
Chain of KRas G12V (P01116 1-169 isoform P01116-2 G12V): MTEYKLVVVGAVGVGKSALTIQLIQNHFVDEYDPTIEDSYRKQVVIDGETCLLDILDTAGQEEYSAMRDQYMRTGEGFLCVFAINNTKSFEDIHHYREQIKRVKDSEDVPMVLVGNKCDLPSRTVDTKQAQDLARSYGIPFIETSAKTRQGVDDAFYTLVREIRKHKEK

| Compound | IC50 ([1]; Cisbio pERK HTRF) | inhibition at 0.1 µM [1] | IC50 ([2]; Cisbio pERK HTRF) | inhibition at 0.1 µM [2] | inhibition at 0.1 µM [3] | inhibition at 0.1 µM [4] | inhibition at 0.1 µM [5] | inhibition at 0.1 µM [6] | IC50 [7] | IC50 [8] | IC50 [9] | IC50 [1] | IC50 [2] | IC50 [3] | IC50 [4] | IC50 [5] | IC50 [6] | IC50 ([3]; Cisbio pERK HTRF) | IC50 ([4]; Cisbio pERK HTRF) | IC50 ([5]; Cisbio pERK HTRF) |
| --- | --- | --- | --- | --- | --- | --- | --- | --- | --- | --- | --- | --- | --- | --- | --- | --- | --- | --- | --- | --- |
| CCc1c(F)ccc2cc(O)cc(N3CCc4c(nc(OC[C@@]56CCCN5C[C@H](F)C6)nc4N4CCCCC(COCC(=O)N(C)C)C4)C3)c12 (stereo partly drawn) [Example 251, 2-((1-(7-(8-ethyl-7-fluoro-3-hydroxynaphthalen-1-yl)-2-(((2R,7aS)-2-fluorohexahydro-1H-pyrrolizin-7a-yl)methoxy)-5,6,7,8-tetrahydropyrido[3,4-d]pyrimidin-4-yl)azepan-3-yl)methoxy)-N,N-dimethylacetamide] | 1310 nM | -4% | 1200 nM | 3% | 21% | 15% | -7% | 2% | 7 nM | 3 nM | 5 nM | – | – | – | – | – | – | – | – | – |
| CCc1c(F)ccc2cc(O)cc(N3CCc4c(nc(OC[C@@]56CCCN5C[C@H](F)C6)nc4N4CCCN(CC(F)(F)F)CC4)C3)c12 [Example 649, 5-ethyl-6-fluoro-4-(2-(((2R,7aS)-2-fluorotetrahydro-1H-pyrrolizin-7a(5H)-yl)methoxy)-4-(4-(2,2,2-trifluoroethyl)-1,4-diazepan-1-yl)-5,8-dihydropyrido[3,4-d]pyrimidin-7(6H)-yl)naphthalen-2-ol] | – | – | – | – | – | – | – | – | 124 nM | 34 nM | 29 nM | 6520 nM | 3710 nM | 3100 nM | 2440 nM | > 10000 nM | 1100 nM | – | – | – |
| CCc1c(F)ccc2cc(O)cc(N3CCc4c(nc(N5CC(C)(N)C5)nc4N4CCCn5nc(C(=O)N(C)C)cc5C4)C3)c12 [Example 427, 5-(2-(3-amino-3-methylazetidin-1-yl)-7-(8-ethyl-7-fluoro-3-hydroxynaphthalen-1-yl)-5,6,7,8-tetrahydropyrido[3,4-d]pyrimidin-4-yl)-N,N-dimethyl-5,6,7,8-tetrahydro-4H-pyrazolo[1,5-a][1,4]diazepine-2-carboxamide] | – | -23% | – | -14% | 0% | 25% | 4% | -16% | 182 nM | 537 nM | 253 nM | – | – | – | – | – | – | – | – | – |
| CN(C)CC1(COc2nc3c(c(N4CCCn5nc(C(=O)N6CCOCC6)cc5C4)n2)CCN(c2cc(O)cc4ccc(F)c(Cl)c24)C3)CC1 [Example 468, (5-(7-(8-chloro-7-fluoro-3-hydroxynaphthalen-1-yl)-2-((l-((dimethylamino)methyl)cyclopropyl)methoxy)-5,6,7,8-tetrahydropyrido[3,4-d]pyrimidin-4-yl)-5,6,7,8-tetrahydro-4H-pyrazolo[1,5-a][1,4]diazepin-2-yl)(morpholino)methanone] | 1940 nM | – | 1770 nM | – | -12% | -7% | -4% | -2% | 2 nM | 10 nM | 3 nM | – | – | – | – | – | – | – | – | – |
| CCc1c(F)ccc2cc(O)cc(N3CCc4c(nc(OC[C@@]56CCCN5C[C@H](F)C6)nc4N4CCCCC(CC(=O)NC)C4)C3)c12 (stereo partly drawn) [Example 346, 2-(1-(7-(8-ethyl-7-fluoro-3-hydroxynaphthalen-1-yl)-2-(((2R,7aS)-2-fluorohexahydro-1H-pyrrolizin-7a-yl)methoxy)-5,6,7,8-tetrahydropyrido[3,4-d]pyrimidin-4-yl)azepan-3-yl)-N-methylacetamide] | 1220 nM | – | 822 nM | – | 19% | 9% | 7% | 11% | 6 nM | < 2 nM | 4 nM | – | – | – | – | – | – | – | – | – |
| CCc1c(F)ccc2cc(O)cc(N3CCc4c(nc(OC[C@@]56CCCN5C[C@H](F)C6)nc4N4CCCCC(CC(=O)N(C)C)C4)C3)c12 (stereo partly drawn) [Example 345, 2-(1-(7-(8-ethyl-7-fluoro-3-hydroxynaphthalen-1-yl)-2-(((2R,7aS)-2-fluorohexahydro-1H-pyrrolizin-7a-yl)methoxy)-5,6,7,8-tetrahydropyrido[3,4-d]pyrimidin-4-yl)azepan-3-yl)-N,N-dimethylacetamide] | 1640 nM | – | – | – | 12% | -9% | 5% | 13% | 6 nM | < 2 nM | 4 nM | – | – | – | – | – | – | – | – | – |
| CCc1c(F)ccc2cc(O)cc(N3CCc4c(nc(OC[C@@]56CCCN5C[C@H](F)C6)nc4N4CCCn5nc(C(=O)N6CC[C@H]7CC[C@@H]6C7)cc5C4)C3)c12 [Example 617, ((1R,5R)-2-azabicyclo[3.2.1]octan-2-yl)(5-(7-(8-ethyl-7-fluoro-3-hydroxynaphthalen-1-yl)-2-(((2R,7aS)-2-fluorotetrahydro-1H-pyrrolizin-7a(5H)-yl)methoxy)-5,6,7,8-tetrahydropyrido[3,4-d]pyrimidin-4-yl)-5,6,7,8-tetrahydro-4H-pyrazolo[1,5-a][1,4]diazepin-2-yl)methanone] | – | – | – | – | – | – | – | – | – | – | – | 13 nM | 15 nM | 27 nM | 40 nM | 115 nM | 8 nM | – | – | – |
| CCc1c(F)ccc2cc(O)cc(N3CCc4c(nc(OC[C@@]56CCCN5C[C@H](F)C6)nc4N4CCn5cncc5C4)C3)c12 [Example 279, 4-(4-(5,6-dihydroimidazo[1,5-a]pyrazin-7(8H)-yl)-2-(((2R,7aS)-2-fluorohexahydro-1H-pyrrolizin-7a-yl)methoxy)-5,6-dihydropyrido[3,4-d]pyrimidin-7(8H)-yl)-5-ethyl-6-fluoronaphthalen-2-ol] | > 10000 nM | – | 5080 nM | – | – | 0% | 4% | – | 93 nM | 25 nM | 22 nM | – | – | – | – | – | – | – | – | – |
| CCc1c(F)ccc2cc(O)cc(N3CCc4c(nc(OC[C@@]56CCCN5C[C@H](F)C6)nc4N4CCCn5nc(C(C(F)F)N(C)C)cc5C4)C3)c12 (stereo partly drawn) [Example 263, 4-(4-(2-(1-(dimethylamino)-2,2-difluoroethyl)-7,8-dihydro-4H-pyrazolo[1,5-a][1,4]diazepin-5(6H)-yl)-2-(((2R,7aS)-2-fluorotetrahydro-1H-pyrrolizin-7a(5H)-yl)methoxy)-5,8-dihydropyrido[3,4-d]pyrimidin-7(6H)-yl)-5-ethyl-6-fluoronaphthalen-2-ol] | 5370 nM | – | 8770 nM | – | – | -31% | -11% | – | 109 nM | 261 nM | 295 nM | – | – | – | – | – | – | – | – | – |
| CCc1c(F)ccc2cc(O)cc(N3CCc4c(nc(OC[C@@]56CCCN5C[C@H](F)C6)nc4N4CCOCC5(CCO5)C4)C3)c12 (stereo partly drawn) [Example 249, 5-ethyl-6-fluoro-4-(2-(((2R,7aS)-2-fluorohexahydro-1H-pyrrolizin-7a-yl)methoxy)-4-(1,6-dioxa-9-azaspiro[3.6]decan-9-yl)-5,6-dihydropyrido[3,4-d]pyrimidin-7(8H)-yl)naphthalen-2-ol] | 161 nM | 1% | 124 nM | 21% | 35% | 53% | 10% | 70% | – | – | – | – | – | – | – | – | – | – | – | – |
| CCc1c(F)ccc2cc(O)cc(N3CCc4c(nc(OC[C@@]56CCCN5C[C@H](F)C6)nc4N4CCCn5nc(N(C)S(N)(=O)=O)cc5C4)C3)c12 [Example 291, 7-(8-ethyl-7-fluoro-3-hydroxy-1-naphthyl)-2-(((2R,7aS)-2-fluorotetrahydro-1H-pyrrolizin-7a(5H)-yl)methoxy)-4-(2-((sulfamoyl)methylamino)-7,8-dihydro-4H-pyrazolo[1,5-a][1,4]diazepin-5(6H)-yl)-6,8-dihydro-5H-pyrido[3,4-d]pyrimidine] | – | – | – | – | 23% | 4% | 12% | 20% | 8 nM | 20 nM | 21 nM | – | – | – | – | – | – | – | – | – |
| CCc1c(F)ccc2cc(O)cc(N3CCc4c(nc(OC[C@@]56CCCN5C[C@H](F)C6)nc4N4CCCn5nccc5C4)C3)c12 [Example 418, 4-(4-(7,8-dihydro-4H-pyrazolo[1,5-a][1,4]diazepin-5(6H)-yl)-2-(((2R,7aS)-2-fluorohexahydro-1H-pyrrolizin-7a-yl)methoxy)-5,6-dihydropyrido[3,4-d]pyrimidin-7(8H)-yl)-5-ethyl-6-fluoronaphthalen-2-ol] | 117 nM | – | 193 nM | – | – | – | – | – | 3 nM | 2 nM | < 2 nM | – | – | – | – | – | – | 236 nM | 375 nM | 787 nM |
